The results in this text go back to patent publication US20250115571A1, “OXOPIPERAZINE DERIVATIVES” (Inthera Bioscience AG, priority 2017, published 2025).

One assay concerns KARPAS-422. Description: 5-day cell proliferation assay (CTG). In kind it is cell-based. Particulars: Homo sapiens, 120 h, KARPAS-422, Lymphoma. The method, then: (§1) For screening using a proliferation assay, the cells used were cultured at 37° C. with 5% CO2, except for those being cultured with L-15 medium (37° C. and 100% air, TABLE 7). Compound stock solutions (10 mM) were made in sterile water, aliquoted and stored at room temperature. Cisplatin was used as reference Control. Plastic consumables, culture media and supplements were purchased from well-known suppliers (TABLE 8).
(§2) Cell seeding (day −1). When necessary, cells were trypsinized using standard methods (see e.g. example 01). Cells were collected and resuspended in 5-6 mL of appropriate culture medium, counted and diluted to the needed density. Fifty-four μl (microliter) cells were seeded per well in a 384-well plate. Extra four wells per cell line were seeded on an additional plate for Day 0 reading (baseline cell density). Cells were incubated at 37° C. overnight.
(§3) Compound treatment and Day 0 reading (day 0). Tenfold final concentration of test compounds and Cisplatin were prepared in cell culture media (work dilutions). Six μl of work dilution solutions were dispensed into the corresponding wells in 384-well plates to bring the total volume up to 60 μl. Conditions were tested in triplicate. The plates were then incubated at 37° C. for five days. For the day 0 reading, 30 μl of CTG and 6 μl cell culture medium were added to the day 0 plates, contents mixed for 2 min on a plate shaker, and the plates incubated for 10 min at room temperature in the dark. Luminescence was recorded on an EnVision Multi Label Reader (2104-0010A, PerkinElmer, USA).
(§4) Endpoint CTG reading (day 5). The amounts of cells in the plates was determined by endpoint CTG-test. Thirty μl of CTG were added to the 60 μl of cell culture per well, contents mixed for 2 min on a plate shaker, and the plates incubated for 10 min at room temperature in the dark. Luminescence was recorded on an EnVision Multi Label Reader.
(§5) Data analysis. Fifty percent growth inhibition concentrations (GI50) were calculated based on percentage of control data (untreated cells) from each cell line (TABLE 5 (this example) and TABLE 6). Curves were fitted using a nonlinear regression model with a sigmoidal dose response. Examples of obtained curves are depicted in FIG. 2A-2F.

The next assay deals with IM95m. The assay can be described thus: 5-day cell proliferation assay (CTG). In kind it is cell-based. The settings on record: Homo sapiens, 120 h, Stomach/Gastric. The protocol:
as §1, §2, §3, §4, §5

In another assay the test system is VCAP. Description: 5-day cell proliferation assay (CTG). It is filed as cell-based. Particulars: Homo sapiens, 120 h, Prostate. The method, then:
as §1, §2, §3, §4, §5

Another assay has as its system SF268. Description: 5-day cell proliferation assay (CTG). Particulars: Homo sapiens, SF-268, 120 h, SF268, Brain/Nerves. It is filed as cell-based. The protocol:
as §1, §2, §3, §4, §5

In another assay the test system is KARPAS-299. Description: 5-day cell proliferation assay (CTG). It is filed as cell-based. Particulars: Homo sapiens, 120 h, KARPAS-299, Lymphoma. The protocol: as §1, §2, §3, §4, §5
In the next assay the test system is Jurkat. The assay can be described thus: 5-day cell proliferation assay (CTG). It is filed as cell-based. The settings on record: Homo sapiens, 120 h, Leukemia. The protocol: as §1, §2, §3, §4, §5
Another assay has as its system K562. The assay can be described thus: 5-day cell proliferation assay (CTG). In kind it is cell-based. The settings on record: Homo sapiens, 120 h, K562, Leukemia. The method, then:
as §1, §2, §3, §4, §5

The next assay relates to SK-MEL28. The assay can be described thus: 5-day cell proliferation assay (CTG). It is filed as cell-based. Particulars: Homo sapiens, SK-MEL-28, 120 h, SK-MEL28, Skin. The method, then: as §1, §2, §3, §4, §5
The subject of another assay is H460. Description: 5-day cell proliferation assay (CTG). It is filed as cell-based. The settings on record: Homo sapiens, NCI-H460, 120 h, H460, Lung. The protocol:
as §1, §2, §3, §4, §5

A further assay relates to 22RV1. Description: 5-day cell proliferation assay (CTG). It is filed as cell-based. Particulars: Homo sapiens, 120 h, 22RV1, Prostate. The protocol:
as §1, §2, §3, §4, §5

In the next assay the test system is MKN-45. The assay can be described thus: 5-day cell proliferation assay (CTG). It is filed as cell-based. Particulars: Homo sapiens, 120 h, MKN-45, Stomach/Gastric. The protocol:
as §1, §2, §3, §4, §5

Another assay deals with DoTc2 4510. The assay can be described thus: 5-day cell proliferation assay (CTG). In kind it is cell-based. Particulars: Homo sapiens, 120 h, DoTc2 4510, Cervix. The protocol: as §1, §2, §3, §4, §5
The subject of the next assay is DU145. The assay can be described thus: 5-day cell proliferation assay (CTG). In kind it is cell-based. Particulars: Homo sapiens, DU-145, 120 h, DU145, Prostate. The protocol: as §1, §2, §3, §4, §5
A further assay deals with SK-BR-3. Description: 5-day cell proliferation assay (CTG). It is filed as cell-based. The settings on record: Homo sapiens, 120 h, SK-BR-3, Breast. The method, then: as §1, §2, §3, §4, §5
The next assay relates to SiHa. Description: 5-day cell proliferation assay (CTG). In kind it is cell-based. Particulars: Homo sapiens, 120 h, Cervix. The method, then:
as §1, §2, §3, §4, §5

For the next assay, the system named is Malme-3M. Description: 5-day cell proliferation assay (CTG). Particulars: Homo sapiens, 120 h, Skin, highest tested concentration 10 μM. In kind it is cell-based. The method, then:
as §1, §2, §3, §4, §5

The test system of another assay is HCC2935. Description: 5-day cell proliferation assay (CTG). In kind it is cell-based. The settings on record: Homo sapiens, 120 h, HCC2935, Lung, highest tested concentration 10 μM. The method, then: as §1, §2, §3, §4, §5
Another assay concerns A375. The assay can be described thus: 5-day cell proliferation assay (CTG). In kind it is cell-based. Particulars: Homo sapiens, A-375, 120 h, A375, Skin. The method, then: as §1, §2, §3, §4, §5
In another assay the test system is PANC-1. Description: 5-day cell proliferation assay (CTG). It is filed as cell-based. Particulars: Homo sapiens, 120 h, PANC-1, Pancreas. The protocol:
as §1, §2, §3, §4, §5

Another assay has as its system Kasumi-1. Description: 5-day cell proliferation assay (CTG). Particulars: Homo sapiens, 120 h, Kasumi-1, Leukemia. In kind it is cell-based. The method, then:
as §1, §2, §3, §4, §5

Assay [1] concerns patient-derived castration-resistant prostate tumor cells (model #PR6511). Description: Castration resistant prostate cancer patient-derived xenograft (CRPC PDX). Particulars: for CR (complete regression) = number of mice / PR (partial regression) = number of mice / TFS (Tumor Free Survival) = number of complete regressions recorded up to Group Day End: groups of eight mice. It is filed as in vivo, mouse. The method, then: NSG NOD.Cg-PrkdcscidIj2rgtm1Wjl/SzJ mice (6-8 weeks of age) were injected with patient-derived castration-resistant prostate tumor cells (model #PR6511, Crown Bioscience UK Ltd Hillcrest, Osgathorpe Leicestershire, UK). The cells were inoculated subcutaneously into the left flank of 40 male NSG mice. When tumors reached a mean volume of approximately 100 mm^3 (i.e. 100 mm^3+/−54 mm^3, FIG. 3), mice were randomly assigned to five treatment groups of each eight mice (TABLE 9). Body weights were measured three times weekly prior to the initiation of dosing and daily thereafter. Tumor burden was assessed by caliper measurement three times weekly. Dosing breaks were applied when tolerability issues arose (body weight loss>10). Upon completion of the scheduled dosing phase at day 57, tumor outgrowth was monitored for groups 3, 4 and […] up to study day 77. Groups 1 and 2 were terminated on study day 57. Results of the experiment are shown in TABLES 10 and 11; and FIGS. 3 and 4. The experiment was performed in the Crown Bioscience Ltd. testing facility (Crown Bioscience UK Ltd Hillcrest, Dodgeford Lane, Osgathorpe Leicestershire LE12 9TE, UK).

[2] abbreviates: 6 mg/kg p.o. QD, n.s. = not significant.
The mark [3] stands for this setting: p.o. QD, 10 mg/kg, 3 mg/kg from day 51 on.

As for `CC(C)C[C@@H]1NCCN([C@@H](CC(C)C)C(=O)N2CCC3(C[C@@H]2C)OCC(CN2CCCC2)CO3)C1=O` (stereo partly drawn) [Compound 258, (3S)-1-[(2S)-4-methyl-1-oxo-1-[(3s,6s,8S)-8-methyl-3-(pyrrolidin-1-ylmethyl)-1,5-dioxa-9-azaspiro[5.5]undec-an-9-yl]pentan-2-yl]-3-(2-methylpropyl)piper-azin-2-one (^≠), isomer Z], the GI50 with KARPAS-422 amounted to 48 nM; in the assay on IM95m, 4 nM; in the assay on VCAP, 128 nM; with SF268, 30 nM; in the assay on KARPAS-299, 5 nM; in the assay on Jurkat, 18 nM. Besides, the GI50 with K562 was found to be 17 nM; in the assay with SK-MEL28, 50 nM; in the assay with H460 it was 11 nM; in the assay with 22RV1, 9 nM; in the assay on MKN-45, 4 nM; with DoTc2 4510 it was 14 nM. Besides, the GI50 was 7 nM in the assay on DU145; 12 nM in the assay with SK-BR-3; 52 nM with SiHa; more than 10000 nM in the assay with Malme-3M; more than 10000 nM in the assay on HCC2935; 6 nM with A375. For the same compound, the concentration for 50% growth inhibition (GI50) in the assay on PANC-1 stood at 22 nM; with Kasumi-1, 19 nM. Besides, the “TWO-WAY ANOVA p (tumor size at the end of the study) vs. Compound 258 10 mg/kg” value in assay [1] (setting [2]) was “n.s”. Moreover, the “TWO-WAY ANOVA p (tumor size at the end of the study) vs. Enzalutamide” value in assay [1] (6 mg/kg, p.o. QD) is reported as “p < 0.0001”; in assay [1] (10 mg/kg p.o. QD), “p < 0.0001”. The “TWO-WAY ANOVA p (tumor size at the end of the study) vs. Vehicle” value in assay [1] (6 mg/kg, p.o. QD) is on record as “p < 0.0001”; in assay [1] (10 mg/kg p.o. QD), “p < 0.0001”. For the same compound, the “CR (complete regression) = number of mice” value in assay [1] (p.o. QD, 6 mg/kg) was 3; in assay [1] (setting [3]) it was 4. Further, the “PR (partial regression) = number of mice” value stood at 2 in assay [1] (p.o. QD, 6 mg/kg) and 2 in assay [1] (setting [3]). In addition, the “TFS (Tumor Free Survival) = number of complete regressions recorded up to Group Day End” value was found to be 3 in assay [1] (p.o. QD, 6 mg/kg) and 3 in assay [1] (setting [3]).
On to `CC(C)C[C@@H]1NCCN([C@@H](CC(C)C)C(=O)N2CCC3(C[C@@H]2C)OCC(CN2CCC2)CO3)C1=O` (stereo partly drawn) [Compound 284, (3S)-1-[(2S)-4-methyl-1-oxo-1-[(3s,6s,8S)-3-(azetidin-1-ylmethyl)-8-methyl-1,5-dioxa-9-azaspiro[5.5]undec-an-9-yl]pentan-2-yl]-3-(2-methylpropyl)piper-azin-2-one (^≠), isomer Z], for which, in assay [1] (setting [2]), the “TWO-WAY ANOVA p (tumor size at the end of the study) vs. Compound 258 6 mg/kg” value is reported as “n.s” and the “TWO-WAY ANOVA p (tumor size at the end of the study) vs. Compound 258 10 mg/kg” value was “n.s”. In assay [1] (6 mg/kg, p.o. QD), the “TWO-WAY ANOVA p (tumor size at the end of the study) vs. Enzalutamide” value is “p < 0.0001” and the “TWO-WAY ANOVA p (tumor size at the end of the study) vs. Vehicle” value was “p < 0.0001”. In [1] (p.o. QD, 6 mg/kg), the “CR (complete regression) = number of mice” value worked out at 3, the “PR (partial regression) = number of mice” value is recorded as 2 and the “TFS (Tumor Free Survival) = number of complete regressions recorded up to Group Day End” value is 3.
